Experiments:
Assay type in all cases: cell-based
[1] = system: HL-60; assay: Cell viability, additional cell lines (CellTiter-Glo), HL-60; details: Homo sapiens, HL-60, 72 h; read-out: Absolute IC50
Description: (§1) Tumor cells are grown at 37° C. in a humidified atmosphere with 5% CO2 in RPMI 1640 medium, supplemented with 10% (v/v) fetal calf serum and 50 μg/ml gentamicin for up to 20 passages, and are passaged once or twice weekly.
(§2) Cells are harvested from exponential phase cultures, counted and plated in 96 well flat-bottom microtiter plates at a cell density depending on the cell line's growth rate (4,000-20,000 cells/well depending on the cell line's growth rate, up to 60,000 for hematological cancer cell lines) in RPMI 1640 medium supplemented with 10% (v/v) fetal calf serum and 50 μg/ml gentamicin (140 μl/well). Cultures are incubated at 37° C. and 5% CO2 in a humidified atmosphere. After 24 h, 10 μl of test compounds or control medium are added and left on the cells for another 72 h. Compounds are serially diluted in DMSO, transferred in cell culture medium, and added to the assay plates by using a Tecan Freedom EVO 200 robotic platform. The DMSO concentration is kept constant at 0.3% v/v across the assay plate. Viability of cells is quantified by the CellTiter-Glo® cell viability assay (Promega G8462). After incubation of cells, 100 μl of CellTiter-Glo® One Solution Assay reagent are added to each well. Plates are shaken for 2 minutes to induce cell lysis and incubated for 20 minutes prior to reading luminescence (LU) by using the EnVision® Xcite multilabel plate reader (Perkin Elmer). […]

[2] = system: OPM-2; assay: Cell viability, additional cell lines (CellTiter-Glo), OPM-2; details: Homo sapiens, OPM-2, 72 h; read-out: Absolute IC50
Description: as §1, §2

[3] = system: MOLT-3; assay: Cell viability, additional cell lines (CellTiter-Glo), MOLT-3; details: Homo sapiens, MOLT-3, 72 h
Description: as §1, §2

[4] = system: Kelly cells; assay: Cell survival clonogenic assay, Kelly; details: 0.1-10 μM, crystal violet staining after 9-10 days
Description: To determine the ability of a single cell to form a colony (defined as a cluster of at least 50 cells), Kelly and Hep3B cells were maintained in RPM11640 (Kelly) or EMEM (Hep3B) medium, supplemented with penicillin/streptomycin and 10% FBS. The cells were counted and seeded on the 6-well plates, at the density of 1×10^3 cells per well, the compounds to be tested were added at the desired concentration range, and the cells were cultured at 37° C./5% CO2. After colony formation (9-10 days), the cells were washed and treated with 6.0% glutaraldehyde and 0.5% crystal violet mix for 30 min., followed by rinsing with water and drying at room temperature (RT).

[5] = system: Kelly cells; assay: Cell viability CTG assay, Kelly; details: 72 h, 0.001-50 μM, read-out: Kelly Geomean absolute IC50 by molecule, 72 H
Summary of the method: (§3)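 Cells exposed to compound at 0.25% v/v DMSO for 72 h (37° C., 5% CO2). ATP quantified by CellTiter-Glo luminescence, normalized to DMSO control. Absolute IC50 (T/C=50%) by non-linear regression on duplicate means; geometric mean used for averages.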

[6] = molecular target: T1, SALL4 (Homo sapiens, UniProt Q96SW2+Q9UJQ4); assay: SALL4 degradation in the Kelly cell line, time course; details: Kelly cells, 0.1 μM, 3, 6, 12, 24, 48 and 72 h, FIG. 2
T1 construct: SALL4 degradation in the Kelly cell line was investigated; endogenous in cells; host or cells: Kelly
T1 sequence (Q9UJQ4 whole entry): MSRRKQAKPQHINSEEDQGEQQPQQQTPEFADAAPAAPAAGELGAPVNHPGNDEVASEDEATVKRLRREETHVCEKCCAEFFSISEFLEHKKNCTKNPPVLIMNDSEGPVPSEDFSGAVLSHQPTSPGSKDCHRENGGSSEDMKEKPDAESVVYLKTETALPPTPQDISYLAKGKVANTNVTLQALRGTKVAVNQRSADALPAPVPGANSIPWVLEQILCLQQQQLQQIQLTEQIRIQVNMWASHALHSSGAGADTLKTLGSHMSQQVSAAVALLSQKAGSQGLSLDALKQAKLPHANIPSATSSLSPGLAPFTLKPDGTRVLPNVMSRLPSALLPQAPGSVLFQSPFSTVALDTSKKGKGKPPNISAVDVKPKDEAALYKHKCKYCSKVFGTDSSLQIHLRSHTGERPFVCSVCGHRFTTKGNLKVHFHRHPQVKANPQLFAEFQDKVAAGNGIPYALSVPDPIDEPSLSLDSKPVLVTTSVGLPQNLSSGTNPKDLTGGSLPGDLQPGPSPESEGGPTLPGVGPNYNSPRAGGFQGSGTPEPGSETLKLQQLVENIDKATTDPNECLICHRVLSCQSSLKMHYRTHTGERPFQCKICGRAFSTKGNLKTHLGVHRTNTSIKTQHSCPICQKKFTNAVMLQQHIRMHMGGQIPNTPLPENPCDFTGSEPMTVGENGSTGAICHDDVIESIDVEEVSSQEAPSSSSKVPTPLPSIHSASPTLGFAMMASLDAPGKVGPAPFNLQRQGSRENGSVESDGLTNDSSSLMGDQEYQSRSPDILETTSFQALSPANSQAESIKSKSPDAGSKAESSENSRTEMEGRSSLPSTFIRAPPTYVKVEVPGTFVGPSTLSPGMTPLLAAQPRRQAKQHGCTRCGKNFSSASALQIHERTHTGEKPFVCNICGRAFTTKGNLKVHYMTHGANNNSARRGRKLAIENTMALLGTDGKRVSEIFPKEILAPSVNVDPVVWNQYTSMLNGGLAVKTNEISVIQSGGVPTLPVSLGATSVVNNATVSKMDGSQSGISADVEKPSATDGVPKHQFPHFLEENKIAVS
T1 sequence (Q96SW2 whole entry): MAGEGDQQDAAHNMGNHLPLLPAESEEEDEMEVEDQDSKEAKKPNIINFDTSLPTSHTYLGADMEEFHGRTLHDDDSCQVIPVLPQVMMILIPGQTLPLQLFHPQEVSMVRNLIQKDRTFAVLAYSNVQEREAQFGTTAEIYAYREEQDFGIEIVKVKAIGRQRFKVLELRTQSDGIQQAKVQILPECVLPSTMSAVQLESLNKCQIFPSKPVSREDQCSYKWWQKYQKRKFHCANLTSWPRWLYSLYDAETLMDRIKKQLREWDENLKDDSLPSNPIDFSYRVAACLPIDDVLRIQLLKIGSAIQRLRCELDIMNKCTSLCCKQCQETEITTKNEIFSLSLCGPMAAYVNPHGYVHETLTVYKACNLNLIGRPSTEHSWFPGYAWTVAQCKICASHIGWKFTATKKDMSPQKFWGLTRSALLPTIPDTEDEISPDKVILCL
T1 sequence (Q16531 whole entry partner): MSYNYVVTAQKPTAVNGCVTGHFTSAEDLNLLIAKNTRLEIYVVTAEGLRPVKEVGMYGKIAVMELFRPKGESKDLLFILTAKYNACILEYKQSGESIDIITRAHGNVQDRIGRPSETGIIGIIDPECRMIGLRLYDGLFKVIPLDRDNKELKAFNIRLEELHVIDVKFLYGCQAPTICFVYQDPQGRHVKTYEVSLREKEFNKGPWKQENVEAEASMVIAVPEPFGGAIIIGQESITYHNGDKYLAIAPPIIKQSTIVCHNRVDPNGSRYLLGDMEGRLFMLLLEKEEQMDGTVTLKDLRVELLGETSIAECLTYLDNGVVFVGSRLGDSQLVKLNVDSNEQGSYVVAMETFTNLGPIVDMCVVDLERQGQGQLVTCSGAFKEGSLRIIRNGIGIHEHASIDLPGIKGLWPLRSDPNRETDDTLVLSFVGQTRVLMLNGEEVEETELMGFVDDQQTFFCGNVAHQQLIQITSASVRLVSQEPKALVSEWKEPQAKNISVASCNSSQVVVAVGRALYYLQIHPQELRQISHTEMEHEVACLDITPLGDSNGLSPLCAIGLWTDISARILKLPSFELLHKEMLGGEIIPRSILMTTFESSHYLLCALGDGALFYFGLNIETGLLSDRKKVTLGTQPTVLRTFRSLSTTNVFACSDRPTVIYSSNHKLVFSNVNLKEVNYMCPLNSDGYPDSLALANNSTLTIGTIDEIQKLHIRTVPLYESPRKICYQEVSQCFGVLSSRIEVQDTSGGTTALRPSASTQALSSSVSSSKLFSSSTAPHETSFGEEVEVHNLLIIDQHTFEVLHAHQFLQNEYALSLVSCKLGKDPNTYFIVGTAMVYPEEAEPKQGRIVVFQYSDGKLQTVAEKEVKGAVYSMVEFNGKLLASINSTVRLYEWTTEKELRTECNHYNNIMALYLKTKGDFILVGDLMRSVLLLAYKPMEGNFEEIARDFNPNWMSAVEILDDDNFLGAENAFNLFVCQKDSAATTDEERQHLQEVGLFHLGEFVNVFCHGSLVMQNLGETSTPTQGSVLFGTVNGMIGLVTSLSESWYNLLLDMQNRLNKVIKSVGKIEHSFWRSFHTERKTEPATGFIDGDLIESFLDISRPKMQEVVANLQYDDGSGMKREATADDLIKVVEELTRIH
Description: Kelly cells were maintained in RPMI-1640 medium, supplemented with penicillin/streptomycin and 10% Fetal Bovine Serum (FBS). Cells were seeded on 6- or 12-well plates, and the compounds to be tested were added at the desired concentration range. Final DMSO concentration was 0.25%. After incubation (37° C., 5% CO2) for a specified period of time, cells were harvested, washed and cell lysates were prepared using RIPA lysis buffer. The amount of protein was determined via BCA assay, and the appropriate quantity was then loaded on the precast gel for the protein separation. After primary and secondary Ab staining, the membranes were washed and signals developed. The densitometry analysis was implemented to obtain the numeric values used later in the protein level evaluation process.

[7] = system: MOLM-1; assay: Cell viability, additional cell lines (CellTiter-Glo), MOLM-1; details: MOLM-1, 72 h
Description: as §1, §2

[8] = system: MOLM-13; assay: Cell viability, additional cell lines (CellTiter-Glo), MOLM-13; details: Homo sapiens, MOLM-13, 72 h
Description: as §1, §2

[9] = system: KG-1 cells; assay: Cell viability CTG assay, KG-1; details: Homo sapiens; KG-1, 72 h, 0.001-50 μM; read-out: KG-1 Geomean absolute IC50 by molecule, 72 H
Summary of the method: as §3

[10] = 9.5 μM, read-out: Test/Control viability at 9.5 μM

IC50 [1]: > 30 µM
IC50 ([3]; read-out: Absolute IC50): ≥ 30 µM
IC50 ([7]; read-out: Absolute IC50): ≤ 0.1 µM
IC50 ([8]; read-out: Absolute IC50): ≥ 30 µM
SMILES: NCc1ccc2c(c1)CN(C1CCC(=O)NC1=O)C2=O (stereo not drawn) [Compound 1, 3-(5-(aminomethyl)-1-oxoisoindolin-2-yl)piperidine-2,6-dione]
IC50 [2]: > 30 µM
viability at 9.5 µM [3, 10]: ≤ 60%
survival of the cells (colony formation) [4]: in most cases inhibited
IC50 [5]: 0.1 to 1 µM
SALL4 degradation time course [6]: more rapidly and effectively than lenalidomide
viability at 9.5 µM [7, 10]: ≤ 30%
viability at 9.5 µM [8, 10]: ≤ 60%
IC50 [9]: ≤ 0.1 µM

— patent publication US20240294489A1 (Captor Therapeutics S.A., priority 2020, published 2024)
